The values below come from US6818662B2, “Pharmaceutical composition” (Taisho Pharmaceutical Co., Ltd., priority 2002, dated 2004).

Format in all cases: physicochemical
The nature of data set [1]: Solubilization test. The note with it: 25° C. As to the method: An excess amount of N-(3-chloro-4-morpholin-4-yl)phenyl-N′-hydroxyimidoformamidine was added to 10% and 20% aqueous solutions of sulfobutyl ether β-cyclodextrin sodium salt (Captisol (trade name); average substitution degree is about 7) and purified water as a control, respectively. After shaking on a water bath adjusted at 25° C. for one day, the solubility of the drug was measured.

The nature of data set [2]: Solubility in vehicles for micelles, co-solvents and lipid emulsion preparations. The text has this: (§1) The present invention can be disclosed in more detail as follows. Since N-(3-chloro-4-morpholin-4-yl)phenyl-N′-hydroxyimidoformamidine was unstable in an acidic solution, solubilization by forming it into an acidic salt thereof was not proper. Furthermore, the solubility of N-(3-chloro-4-morpholin-4-yl)phenyl-N′-hydroxyimidoformamidine in 5% Tween 80, 10% polyethylene glycol, soybean oil and olive oil, which were used for forming it into micelles, co-solvents and lipid emulsion preparations, was not more than 0.5 mg/mL at 25° C. and was insufficient for forming it into these micelles, co-solvents and lipid emulsion preparations. […] Based on this unpredictable finding in which in the case of the sulfobutyl ether β-cyclodextrin solution, the drug is stable over light exposure and thus, it is convenient for actual use without a special care such as shading, the present invention has been accomplished.

The nature of data set [3]: Stability in acidic solution.
Text: as §1

Values after ≈ are worked out from the molar mass of the structure shown.

As to `ON=CNc1ccc(N2CCOCC2)c(Cl)c1` [N-(3-chloro-4-morpholin-4-yl)phenyl-N′-hydroxyimidoformamidine], the solubility in data set [1] (10% aqueous solution of sulfobutyl ether β-cyclodextrin sodium salt) is 3570 µg/mL; in data set [1] (20% aqueous solution of sulfobutyl ether β-cyclodextrin sodium salt), 7670 µg/mL; in data set [1] (purified water (control), shaking one day), 80 µg/mL (≈ 313 µM); in data set [2] (5% Tween 80, 25° C.), “not more than 0.5 mg/mL”; in data set [2] (10% polyethylene glycol, 25° C.), “not more than 0.5 mg/mL”; in data set [2] (olive oil, 25° C.) it was “not more than 0.5 mg/mL”. For the same molecule, in data set [2] (soybean oil, 25° C.), the solubility entry was “not more than 0.5 mg/mL”. Moreover, the “stability in an acidic solution” value in data set [3] is recorded as “unstable”.
